According to US7521423B2, “Exendin pharmaceutical compositions” (Amylin Pharmaceuticals, Inc., priority 1996, dated 2009):
“Also recorded” adds a separate entry of the source. No end group written: not given here.

Legend:
[1] = tested on: pentagastrin-induced gastric acid secretion; details: reported, Gedulin et al. 1997; cited from earlier work
gastric emptying [2] = assay: Gastric emptying in conscious rats, retention of phenol red methyl cellulose gel 20 min after gavage (Example 1); format: in vivo, Male Harlan Sprague Dawley (HSD) rats; details: for ED50 of inhibition of gastric emptying: Example 1, FIG. 2, subcutaneous injection, 20 min after gavage; for % remaining (percent of gastric contents remaining 20 minutes after gavage): normal rats; for effect on gastric emptying (in words): Example 1, dose-response study
Method: As described in Example 1, gastric emptying was measured in normal Sprague Dawley rats using the retention of an acaloric methylcellulose gel containing Phenol Red delivered by gavage. Dye content in stomachs removed after sacrifice 20 minutes later was determined spectroscopically, and was compared to that in rats sacrificed immediately after gavage to assess emptying.
This experiment followed a modification of the method of Scarpignato, et al., Arch. Int. Pharmacodyn. Ther. 246:286-94 (1980).
Male Harlan Sprague Dawley (HSD) rats were used. All animals were housed at 22.7±0.8 C in a 12:12 hour light:dark cycle (experiments being performed during the light cycle) and were fed and watered ad libitum (Diet LM-485, Teklad, Madison, Wis.).
The determination of gastric emptying by the method described below was performed after a fast of ˜20 hours to ensure that the stomach contained no chyme that would interfere with spectrophotometric absorbance measurements.
(§1) Conscious rats received by gavage, 1.5 ml of an acaloric gel containing 1.5% methyl cellulose (M-0262, Sigma Chemical Co, St Louis, Mo.) and 0.05% phenol red indicator. Twenty minutes after gavage, rats were anesthetized using 5% halothane, the stomach exposed and clamped at the pyloric and lower esophageal sphincters using artery forceps, removed and opened into an alkaline solution which was made up to a fixed volume. Stomach content was derived from the intensity of the phenol red in the alkaline solution, measured by absorbance at a wavelength of 560 nm. In separate experiments on 7 rats, the stomach and small intestine were both excised and opened into an alkaline solution. The quantity of phenol red that could be recovered from the upper gastrointestinal tract within 20 minutes of gavage was 89±4%; dye which appeared to bind irrecoverably to the gut luminal surface may have accounted for the balance. To account for a maximal dye recovery of less than 100%, percent of stomach contents remaining after 20 min were expressed as a fraction of the gastric contents recovered from control rats sacrificed immediately after gavage in the same experiment. Percent gastric contents remaining =(absorbance at 20 min)/(absorbance at 0 mm)×100.
In baseline studies, with no drug treatment, gastric emptying over 20 min was determined. […]

gastric emptying [3] = assay: Antagonism by exendin[9-39] of gastric emptying inhibition by exendin-4 and GLP-1[7-36]NH2 (Example 3); format: in vivo, rats
Method: (sc), n=6; and 0.3 mg exendin[9-39] (sc), n=6 on the retention of gastric contents 20 minutes after gavage. Also shown are saline controls at t=0 and t=20 min. The error bars show standard error of the mean. […] Exendin[9-39] (sc) alone had no effect on gastric emptying.
(iv), n=5 on the retention of gastric contents 20 minutes after gavage. Also shown are saline controls at t+0 and t=20 min. The error bars show standard error of the mean.
(iv), n=3 on the retention of gastric contents 20 minutes after gavage. Also shown are saline controls at t=0 and t=20 min. The error bars show standard error of the mean. […] When injected along with GLP-1[7-36]NH2, exendin[9-39]
as §1
In these studies, exendin[9-39] was give both subcutaneously (sc) and intravenously (iv).

food intake = details: mice, peripheral injection; cited from earlier work
gastric emptying [4] = assay: Gastric emptying inhibition by exendin-4 analogs, methods of Example 1 (Example 2); format: in vivo, Male HSD rats; details: for ED50 of inhibition of gastric emptying: Example 2, FIG. 3; for ED50 of inhibition of gastric emptying / EC50 (inhibition of gastric emptying): 20 min after gavage; for EC50 (inhibition of gastric emptying): Example 2, Table II; for effect on gastric emptying (in words): Example 2, dose-response study
Text: as §1, with “Twenty” for “Conscious rats received by gavage, 1.5 ml of an acaloric gel containing 1.5% methyl cellulose (M-0262, Sigma Chemical Co, St Louis, Mo.) and 0.05% phenol red indicator. Twenty”, “The quantity of phenol red that could be recovered from the upper gastrointestinal tract within 20 minutes of gavage was 89±4%; dye which appeared to bind irrecoverably to the gut luminal surface may have accounted for the balance.” left out

Substance	ED50 of inhibition of gastric emptying (gastric emptying [2])	% remaining (percent of gastric contents remaining 20 minutes after gavage) (gastric emptying [2]; dose 0.100 μg)	% remaining (percent of gastric contents remaining 20 minutes after gavage) (gastric emptying [2]; dose 0.300 μg)	% remaining (percent of gastric contents remaining 20 minutes after gavage) (gastric emptying [2]; dose 1.000 μg)	% remaining (percent of gastric contents remaining 20 minutes after gavage) (gastric emptying [2]; dose 3.000 μg)	% remaining (percent of gastric contents remaining 20 minutes after gavage) (gastric emptying [2]; dose 10.000 μg)	% remaining (percent of gastric contents remaining 20 minutes after gavage) (gastric emptying [2]; dose 100.000 μg)	ED50 of inhibition of gastric emptying (gastric emptying [4])	EC50 (inhibition of gastric emptying) (gastric emptying [4])	effect on gastric emptying (in words) (gastric emptying [4])	% remaining (percent of gastric contents remaining 20 minutes after gavage) (gastric emptying [2]; dose 0.010 μg)	also measured
GLP-1[7-36]NH2 [GLP-1 (7-36)NH2]	approximately 9 μg	42.00 (7) %	29.60 (7) %	37.20 (9) %	56.60 (10) %	87.90 (11) %	103.60 (7) %					inhibition of pentagastrin-induced gastric acid secretion [1]: inhibitory effect; effect on retention of gastric contents 20 minutes after gavage (gastric emptying [3]; 10 μg GLP-1[7-36]NH2 (sc) alone, FIGS. 6 and 7): potently inhibited gastric emptying; inhibition of food intake (food intake): not observed
^14Leu, ^25Phe exendin-4								0.29 µg	0.29 µg	potent inhibitors of gastric emptying; also recorded: dose dependently inhibiting gastric emptying		
exendin-3	~0.1 µg	70.770 (3) %	86.420 (3) %	95.330 (3) %		101.760 (3) %	103.640 (3) %				58.240 (3) %	effect on gastric emptying (in words) (gastric emptying [2]; listed as exendin 3): dose-dependently inhibited gastric emptying; effect on gastric emptying (in words) (gastric emptying [2]; listed as exendin-3): potent inhibitors of gastric emptying
exendin-4 acid								0.12 µg	0.12 µg	potent inhibitors of gastric emptying; also recorded: dose dependently inhibiting gastric emptying		
exendin[9-39]												effect on gastric emptying (gastric emptying [3]; 0.3 mg exendin[9-39] (sc) alone): no effect; antagonism of the effect of exendin-4 on gastric emptying inhibition (gastric emptying [3]; 0.3 mg exendin[9-39] (sc) plus 1.0 μg exendin-4 (sc), FIG. 4): did not antagonize; antagonism of the effect of exendin-4 on gastric emptying inhibition (gastric emptying [3]; 0.5 mg exendin[9-39] (iv) plus 0.3 μg exendin-4 (sc), FIG. 5): did not antagonize; antagonism of the effect of GLP-1[7-36]NH2 on gastric emptying inhibition (gastric emptying [3]; 0.5 mg exendin[9-39] (iv) plus 10 μg GLP-1[7-36]NH2 (sc), FIG. 7): did not antagonize; antagonism of the effect of GLP-1[7-36]NH2 on gastric emptying inhibition (gastric emptying [3]; 3 mg exendin[9-39] (sc) plus 10 μg GLP-1[7-36]NH2 (sc), FIG. 6): did not antagonize; reversal / block of the effect of exendin-4 on gastric emptying (gastric emptying [3]; exendin[9-39] administered sc or iv, FIGS. 4 and 5): not reversed; also recorded: did not block; block of the effect of GLP-1[7-36]NH2 on gastric emptying (gastric emptying [3]; exendin[9-39] sc or iv, FIGS. 6 and 7): did not block
rat amylin (KCNTATCATQRLANFLVRSSNNLGPVLPPTNVGSNTY; ends and bridges not checked; cysteine pairing not given here; UniProt P12969 38-74, looked up) [second positive control for gastric emptying]		52.70 (6) %	58.20 (4) %	96.80 (9) %	108.000 (4) %	101.10 (6) %	101.20 (2) %				37.60 (2) %	
